How the values were obtained:
[1] = test system: inducible nitric oxide synthase (iNOS); test: Western blot analysis of iNOS (M1 marker) in LPS-stimulated glial cells; type: cell-based; conditions: LPS 100 ng/mL, 24 hours co-treatment, 0, 5, 10 and 20 μM; dose-dependent; primary rat glial cells (FIGS. 5a, b)
Procedure: (§1) Mixed glial cell cultures were prepared from cerebral cortex of newborn Wistar rats (Rattus norvegicus), as previously described [Monti, B.; D'Alessandro, C.; Farini, V.; Bolognesi, A.; Polazzi, E.; Contestabile, A.; Stirpe, F.; Battelli, M. G. In vitro and in vivo toxicity of type 2 ribosome-inactivating proteins lanceolin and stenodactylin on glial and neuronal cells. Neurotoxicology 2007, 28, 637-644]. Briefly, brain tissue was cleaned from meninges, trypsinized for 15 minutes at 37° C. and, after mechanical dissociation, the cell suspension was washed and plated on poly-L-lysine (Sigma-Aldrich, St. Louis, Mo., USA, 10 μg/mL) coated flasks (75 cm^2). Mixed glial cells were cultured for 10-13 days in Basal Medium Eagle (BME, Life technologies Ltd, Paisley, UK) supplemented with 100 mL/L heat-inactivated FBS (Life technologies), 2 mmol/L glutamine (Sigma-Aldrich) and 100 μmol/L gentamicin sulfate (Sigma-Aldrich).
(§2) Microglial cells were harvested from mixed glial cell cultures by mechanical shaking, resuspended in fresh medium without serum and plated on uncoated 35 mm Ø dishes at a density of 1.5×10^6 cells/1.5 mL medium/well for western blot analysis or on 96 wells at 1×10^5 cells/0.2 mL medium/well for MTT assay. Cells were allowed to adhere for 30 minutes and then washed to remove non-adhering cells. […]

[2] = test system: triggering receptor expressed on myeloid cells 2 (TREM2); test: Western blot analysis of TREM2 (M2 marker) in LPS-treated microglia cells; type: cell-based, rat; conditions: LPS 100 ng/mL, 24 hours co-treatment; microglia cells (FIG. 5c)
Procedure: as §1
as §2, with “assay.” for “assay. Cells were allowed to adhere for 30 minutes and then washed to remove non-adhering cells.”
J. Biol. Chem. 1951, 193, 265-275]. […] Labelled proteins were detected by using the enhanced chemiluminescence method (ECL; Bio-RAD). […]

glial and neuronal cells = test: MTT assay, viability of brain cells in primary cultures; type: cell-based, rat; conditions: 0, 10, 20 and 50 μM for 24 hours; up to 50 μM; microglia, astrocytes, cerebellar granular neurons (FIGS. 4a-4c)
Procedure: as §1, with “(Sigma-Aldrich). […]” for “(Sigma-Aldrich).”
Neurotoxicology 2007, 28, 637-44]. […] Following a 20 minutes incubation for CGNs and 2 hours for glial cells at 37° C. in the dark, the MTT precipitate was dissolved in 0.1 M Tris-HCl buffer containing 5% Triton X-100 (all from Sigma-Aldrich) and absorbance was read at 570 nm in a multiplate spectophotometric reader (Bio-Rad).

β-secretase (BACE-1) = β-secretase (BACE-1) (Homo sapiens (Human), UniProt P56817); test: Inhibition of BACE-1 (fluorogenic APP-mimicking peptide substrate); conditions: BACE-1 IC50 (μM), substrate 3 μM, 1 hour pre-incubation at rt, 15 minutes at 37° C.
Sequence of β-secretase (BACE-1) (P56817 46-501): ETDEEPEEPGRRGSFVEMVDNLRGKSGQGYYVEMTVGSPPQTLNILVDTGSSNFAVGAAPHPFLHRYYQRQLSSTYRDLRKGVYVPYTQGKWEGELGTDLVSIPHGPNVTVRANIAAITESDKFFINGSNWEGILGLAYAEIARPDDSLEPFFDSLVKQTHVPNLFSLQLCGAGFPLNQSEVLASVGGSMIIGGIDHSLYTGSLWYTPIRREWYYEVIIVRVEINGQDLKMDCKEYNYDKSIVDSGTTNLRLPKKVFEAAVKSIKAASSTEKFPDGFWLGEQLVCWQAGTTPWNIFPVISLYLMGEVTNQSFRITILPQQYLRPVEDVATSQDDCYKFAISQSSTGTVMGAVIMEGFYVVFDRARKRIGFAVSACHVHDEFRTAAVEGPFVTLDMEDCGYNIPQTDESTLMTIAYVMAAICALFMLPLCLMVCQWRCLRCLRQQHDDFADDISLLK
Procedure: β-secretase (BACE-1, Sigma-Aldrich) inhibition studies were performed by employing a peptide mimicking APP sequence as substrate (Methoxycoumarin-[sequence]dinitrophenyl, M-2420, Bachem, Germany). The following procedure was employed: 5 μL of test compounds (or DMSO, if preparing a control well) were pre-incubated with 175 μL of enzyme (in 20 mM sodium acetate containing 3-[(3-Cholamidopropyl)dimethylammonio]-1-propanesulfonate (CHAPS) 0.1% w/v) for 1 hour at rt. The substrate (3 μM, final concentration) was then added and left to react for 15 minutes at 37° C. The fluorescence signal was read at λem=405 nm (λexc=320 nm) using a Fluoroskan Ascent. […] The fluorescence intensities with and without inhibitor were compared and the percent inhibition due to the presence of test compounds was calculated. The background signal was measured in control wells containing all the reagents, except BACE-1 and subtracted. The % inhibition due to the presence of increasing test compound concentration was calculated by the following expression: 100−(IFi/IFo×100) where IFi and IFo are the fluorescence intensities obtained for BACE-1 in the presence and in the absence of inhibitor, respectively. […] The linear regression parameters were determined and the IC50 extrapolated (GraphPad Prism 4.0, GraphPad Software Inc.).

IC50 (β-secretase (BACE-1)) [µM] | SMILES | LPS-induced iNOS induction [1] | TREM2 expression reduced by LPS [2] | toxicity in glial and neuronal cells (MTT viability) (glial and neuronal cells)
 | CCNC1=NC(c2ccc(F)cc2)NC(=O)N1 (racemic) [Example 3, 6-(ethylamino)-4-(4-fluorophenyl)-3,4-dihydro-1,3,5-triazin-2(1H)-one] | reduced | restored | did not display any toxicity
36.8 ± 9.85 | CCCNC1=NC(c2ccc(F)cc2)NC(=O)N1 (stereo not shown) [Example 6, 4-(4-fluorophenyl)-6-(propylamino)-3,4-dihydro-1,3,5-triazin-2(1H)-one] | reduced | restored | did not display any toxicity

From patent publication US9975861B2, “Dual inhibitor compounds for use in the treatment of neurodegenerative disorders and alzheimer's disease” (FONDAZIONE ISTITUTO ITALIANO DI TECNOLOGIA, priority 2014, dated 2018)
